Among the targets are ACVR2B (Homo sapiens, UniProt Q13705); AURKA (Homo sapiens, UniProt O14965); AURKB (Homo sapiens, UniProt Q96GD4); CLK1 (Homo sapiens, UniProt P49759); FLT3(R834Q) (Homo sapiens, UniProt P36888, R834Q); HCK (Homo sapiens, UniProt P08631); IRAK4 (Homo sapiens, UniProt Q9NWZ3); KIT(L576P) (Homo sapiens, UniProt P10721, L576P); MERTK (Homo sapiens, UniProt Q12866); NEK6 (Homo sapiens, UniProt Q9HC98); PAK3 (Homo sapiens, UniProt O75914); PRKD3 (Homo sapiens, UniProt O94806); RET (Homo sapiens, UniProt P07949); TEC (Homo sapiens, UniProt P42680); TLK1 (Homo sapiens, UniProt Q9UKI8).

Common to all, as to assay: biochemical
Holding throughout (set-up): DiscoverX KINOMEscan scanMAX competition binding panel, single concentration, percent of control; remaining binding: dose or concentration left out as unconfirmed
What all share (conditions): KINOMEscan binding, percent of control; read-out: Table S4_SCANMAX REPORT - related to Fig. 1 / Percent Control

A further experiment concerns the target T1, ABL1-phosphorylated (Homo sapiens, UniProt P00519).
T1 construct: phosphorylated

A further experiment addresses T2, CTK (Homo sapiens, UniProt P42679).
T2 construct: gene MATK

The target in another experiment is T3, LOK (Homo sapiens, UniProt O94804).
T3 construct: gene STK10

Another experiment has as its target T4, YSK4 (Homo sapiens, UniProt Q56UN5).
T4 construct: gene MAP3K19

Chain of HCK (P08631 whole entry): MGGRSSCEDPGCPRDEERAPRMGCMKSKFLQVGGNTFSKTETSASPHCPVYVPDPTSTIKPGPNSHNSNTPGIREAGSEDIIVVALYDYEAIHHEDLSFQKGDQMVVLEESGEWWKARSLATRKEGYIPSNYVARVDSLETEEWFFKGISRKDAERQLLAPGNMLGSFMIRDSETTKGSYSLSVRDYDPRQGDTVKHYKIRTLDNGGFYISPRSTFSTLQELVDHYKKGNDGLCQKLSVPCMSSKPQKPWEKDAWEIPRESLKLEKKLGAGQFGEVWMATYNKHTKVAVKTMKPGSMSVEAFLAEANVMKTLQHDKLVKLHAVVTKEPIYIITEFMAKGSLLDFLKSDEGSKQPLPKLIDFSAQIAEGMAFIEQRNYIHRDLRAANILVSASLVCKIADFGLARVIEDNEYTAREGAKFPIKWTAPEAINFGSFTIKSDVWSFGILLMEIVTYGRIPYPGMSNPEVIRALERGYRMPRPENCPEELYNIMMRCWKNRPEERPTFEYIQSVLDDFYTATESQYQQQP
Chain of AURKB (Q96GD4 whole entry): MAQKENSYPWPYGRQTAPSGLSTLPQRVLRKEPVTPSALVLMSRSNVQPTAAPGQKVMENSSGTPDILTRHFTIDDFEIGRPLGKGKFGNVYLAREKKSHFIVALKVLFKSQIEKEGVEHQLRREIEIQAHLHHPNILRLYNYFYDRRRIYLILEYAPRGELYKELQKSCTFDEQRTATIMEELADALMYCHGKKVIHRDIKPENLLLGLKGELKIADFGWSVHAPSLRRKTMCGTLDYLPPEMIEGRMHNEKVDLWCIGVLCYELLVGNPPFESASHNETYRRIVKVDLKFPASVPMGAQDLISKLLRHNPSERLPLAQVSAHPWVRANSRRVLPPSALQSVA
Chain of PRKD3 (O94806 whole entry): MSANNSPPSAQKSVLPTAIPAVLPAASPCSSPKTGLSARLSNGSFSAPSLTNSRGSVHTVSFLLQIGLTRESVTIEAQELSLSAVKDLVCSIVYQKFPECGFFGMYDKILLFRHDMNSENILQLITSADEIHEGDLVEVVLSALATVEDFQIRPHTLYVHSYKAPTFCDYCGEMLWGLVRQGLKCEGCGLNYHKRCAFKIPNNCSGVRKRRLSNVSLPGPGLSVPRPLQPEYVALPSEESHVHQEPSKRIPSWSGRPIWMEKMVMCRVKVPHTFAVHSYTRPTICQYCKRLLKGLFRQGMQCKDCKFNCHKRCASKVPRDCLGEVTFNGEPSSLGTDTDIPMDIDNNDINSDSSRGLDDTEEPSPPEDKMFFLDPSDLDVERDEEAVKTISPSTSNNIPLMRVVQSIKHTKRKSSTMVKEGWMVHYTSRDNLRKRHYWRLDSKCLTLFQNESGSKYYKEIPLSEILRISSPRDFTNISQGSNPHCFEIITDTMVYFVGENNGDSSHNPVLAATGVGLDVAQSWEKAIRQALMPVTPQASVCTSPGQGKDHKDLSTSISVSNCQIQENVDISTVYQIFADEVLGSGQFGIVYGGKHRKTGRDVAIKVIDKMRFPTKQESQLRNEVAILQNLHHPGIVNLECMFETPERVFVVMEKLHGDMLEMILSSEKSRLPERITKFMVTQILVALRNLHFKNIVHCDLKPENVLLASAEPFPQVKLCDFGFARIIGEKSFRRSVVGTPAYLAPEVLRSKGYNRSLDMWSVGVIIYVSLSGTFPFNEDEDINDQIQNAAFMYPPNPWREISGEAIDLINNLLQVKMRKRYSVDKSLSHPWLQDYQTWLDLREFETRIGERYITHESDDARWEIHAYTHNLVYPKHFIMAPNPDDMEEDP
Chain of PAK3 (O75914 whole entry): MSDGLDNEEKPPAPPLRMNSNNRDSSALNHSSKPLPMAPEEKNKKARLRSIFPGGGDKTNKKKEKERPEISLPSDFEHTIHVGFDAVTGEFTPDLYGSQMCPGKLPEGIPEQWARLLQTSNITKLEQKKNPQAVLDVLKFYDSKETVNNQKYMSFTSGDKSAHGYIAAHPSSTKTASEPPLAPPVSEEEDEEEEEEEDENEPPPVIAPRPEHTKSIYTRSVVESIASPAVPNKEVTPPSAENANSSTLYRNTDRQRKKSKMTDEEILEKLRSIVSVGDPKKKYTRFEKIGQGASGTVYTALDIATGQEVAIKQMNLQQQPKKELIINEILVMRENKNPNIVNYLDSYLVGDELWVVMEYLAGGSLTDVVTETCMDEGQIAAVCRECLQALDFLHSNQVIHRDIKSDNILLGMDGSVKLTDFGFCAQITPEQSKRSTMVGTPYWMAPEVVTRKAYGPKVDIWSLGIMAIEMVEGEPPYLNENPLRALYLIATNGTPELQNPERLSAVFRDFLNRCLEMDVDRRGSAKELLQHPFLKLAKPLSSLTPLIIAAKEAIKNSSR
T2 sequence (P42679 whole entry): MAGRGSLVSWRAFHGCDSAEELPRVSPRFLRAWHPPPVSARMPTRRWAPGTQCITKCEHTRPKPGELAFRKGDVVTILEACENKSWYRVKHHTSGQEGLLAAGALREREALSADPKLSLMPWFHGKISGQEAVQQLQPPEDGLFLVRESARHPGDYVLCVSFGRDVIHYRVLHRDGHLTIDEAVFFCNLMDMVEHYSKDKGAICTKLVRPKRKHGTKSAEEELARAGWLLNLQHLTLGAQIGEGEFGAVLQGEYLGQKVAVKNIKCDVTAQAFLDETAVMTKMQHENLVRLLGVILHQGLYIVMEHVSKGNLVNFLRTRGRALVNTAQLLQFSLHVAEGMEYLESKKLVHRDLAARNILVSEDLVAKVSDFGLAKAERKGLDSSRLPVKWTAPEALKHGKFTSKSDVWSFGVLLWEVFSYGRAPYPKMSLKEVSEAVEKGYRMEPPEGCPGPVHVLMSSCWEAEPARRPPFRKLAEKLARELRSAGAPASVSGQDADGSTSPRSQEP
Chain of ACVR2B (Q13705 whole entry): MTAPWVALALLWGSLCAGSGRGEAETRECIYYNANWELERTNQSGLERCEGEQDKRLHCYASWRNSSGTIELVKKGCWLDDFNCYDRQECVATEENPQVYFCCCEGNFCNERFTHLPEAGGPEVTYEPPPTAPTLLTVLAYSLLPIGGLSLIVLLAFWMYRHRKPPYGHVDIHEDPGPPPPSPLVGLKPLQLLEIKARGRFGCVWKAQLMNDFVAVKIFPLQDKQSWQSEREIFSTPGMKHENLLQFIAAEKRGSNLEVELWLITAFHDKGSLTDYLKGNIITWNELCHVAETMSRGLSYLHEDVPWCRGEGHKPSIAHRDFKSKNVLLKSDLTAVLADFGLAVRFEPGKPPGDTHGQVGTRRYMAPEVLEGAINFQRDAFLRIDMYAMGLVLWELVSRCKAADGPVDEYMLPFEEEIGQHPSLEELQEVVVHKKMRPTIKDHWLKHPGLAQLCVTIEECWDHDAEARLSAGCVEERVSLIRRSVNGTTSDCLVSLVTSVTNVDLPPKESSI
Chain of MERTK (Q12866 whole entry): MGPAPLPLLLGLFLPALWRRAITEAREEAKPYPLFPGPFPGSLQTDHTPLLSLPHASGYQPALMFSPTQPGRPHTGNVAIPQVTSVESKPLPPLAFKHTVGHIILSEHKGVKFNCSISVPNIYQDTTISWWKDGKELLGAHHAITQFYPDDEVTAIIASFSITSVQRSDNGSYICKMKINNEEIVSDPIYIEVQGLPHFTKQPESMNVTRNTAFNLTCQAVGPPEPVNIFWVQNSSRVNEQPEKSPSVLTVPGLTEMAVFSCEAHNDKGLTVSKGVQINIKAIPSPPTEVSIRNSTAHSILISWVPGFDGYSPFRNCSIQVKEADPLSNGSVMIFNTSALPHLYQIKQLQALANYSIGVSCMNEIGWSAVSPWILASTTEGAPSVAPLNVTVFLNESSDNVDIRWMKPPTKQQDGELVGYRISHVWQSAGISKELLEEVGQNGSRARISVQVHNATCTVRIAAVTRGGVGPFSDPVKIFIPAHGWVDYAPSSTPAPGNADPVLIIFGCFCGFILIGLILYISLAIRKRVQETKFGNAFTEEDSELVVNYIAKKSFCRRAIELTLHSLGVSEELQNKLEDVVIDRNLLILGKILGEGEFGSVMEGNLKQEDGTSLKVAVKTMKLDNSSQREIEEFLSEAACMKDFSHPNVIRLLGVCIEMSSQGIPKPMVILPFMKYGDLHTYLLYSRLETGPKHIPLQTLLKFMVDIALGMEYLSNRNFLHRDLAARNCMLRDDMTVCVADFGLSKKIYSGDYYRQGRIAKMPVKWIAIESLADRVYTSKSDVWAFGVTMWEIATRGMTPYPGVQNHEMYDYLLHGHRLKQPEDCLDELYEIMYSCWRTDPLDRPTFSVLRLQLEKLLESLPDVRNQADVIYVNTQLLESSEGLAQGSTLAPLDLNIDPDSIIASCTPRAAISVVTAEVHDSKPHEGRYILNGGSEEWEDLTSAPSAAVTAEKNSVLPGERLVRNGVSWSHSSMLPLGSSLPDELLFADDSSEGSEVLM
Chain of NEK6 (Q9HC98 whole entry): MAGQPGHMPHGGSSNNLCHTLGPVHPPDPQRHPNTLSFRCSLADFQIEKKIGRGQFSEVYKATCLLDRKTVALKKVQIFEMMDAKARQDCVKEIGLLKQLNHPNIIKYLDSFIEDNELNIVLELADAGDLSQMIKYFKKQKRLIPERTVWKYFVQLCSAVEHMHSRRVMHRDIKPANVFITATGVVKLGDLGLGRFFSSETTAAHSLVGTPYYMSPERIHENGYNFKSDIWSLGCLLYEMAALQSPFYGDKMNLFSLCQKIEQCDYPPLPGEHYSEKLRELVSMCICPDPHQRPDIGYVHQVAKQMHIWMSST

With `c1ccc2c(c1)Sc1ccccc1N2CCN1CCOCC1` [J54], the remaining binding on ABL1-phosphorylated turned out to be 71%; on ACVR2B it was 86%; at AURKA it was 100%; on AURKB, 100%; on CLK1, 85%; at CTK, 95%. The remaining binding at FLT3(R834Q), on HCK, at IRAK4, at KIT(L576P), on LOK and on MERTK was 100% throughout. In addition, the remaining binding on NEK6 is 92%; on PAK3, 100%; at PRKD3, 100%; on RET it was 98%; on TEC, 100%; on TLK1 it was 16%. The remaining binding on YSK4 amounted to 86%.
